Laboratory results as given in paper PMC4628894 (Bioorganic & medicinal chemistry letters, 2015).
Like-named read-outs stand apart in the source and are kept apart here.

Assays:
[1] = target: rat brain CRF1 receptor; conditions: read-out: IC50, rat brain CRF1 receptor; previous report; cited from earlier work
[2] = target: T1, human CRF1 receptor (Homo sapiens, UniProt P34998); type: binding; conditions: for fold loss of binding affinity at CRF1 relative to 2: compared to compound 2; for fold gain in binding affinity at CRF1 relative to 17: compared to compound 17; for fold increase in binding affinity at CRF1 relative to 21: compared to compound 21
T1 sequence (P34998 24-415): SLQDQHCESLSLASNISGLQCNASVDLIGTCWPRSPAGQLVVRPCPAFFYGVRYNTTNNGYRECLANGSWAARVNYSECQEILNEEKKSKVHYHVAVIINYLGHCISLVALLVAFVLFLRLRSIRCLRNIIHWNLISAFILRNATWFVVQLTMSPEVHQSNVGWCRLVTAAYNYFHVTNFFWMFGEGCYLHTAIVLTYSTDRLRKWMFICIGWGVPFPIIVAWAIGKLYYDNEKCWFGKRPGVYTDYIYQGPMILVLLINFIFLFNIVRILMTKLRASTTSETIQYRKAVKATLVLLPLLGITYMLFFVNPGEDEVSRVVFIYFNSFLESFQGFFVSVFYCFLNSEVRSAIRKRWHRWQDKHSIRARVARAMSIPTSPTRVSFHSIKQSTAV

[3] = target: CRF1 receptor; conditions: read-out: Ki for the CRF1 receptor, previously reported, cited from earlier work

fold increase in binding affinity at CRF1 relative to 21 [2]	SMILES	IC50 [1] [pM]	further results
–	CCCCN(CC)c1cc(C)nc2c1NC(=O)CN2c1ccc(C(C)C)cc1Br [Compound 2]	700	–
–	CCCCN(CC)c1cc(C)nc2c1NC(=O)CN2c1ccc(Cl)cc1Cl [Compound 6]	490	–
–	CCCCN(CC)c1cc(C)nc2c1NC(=O)CN2c1ccc(OC)cc1C [Compound 9]	920	–
–	Cc1cc(N(C)C)c2c(n1)N(c1ccc(C(C)C)cc1Br)CC(=O)N2 [Compound 17]	–	fold loss of binding affinity at CRF1 relative to 2 [2]: ~ 75 fold
–	CCN(C)c1cc(C)nc2c1NC(=O)CN2c1ccc(C(C)C)cc1Br [Compound 18]	–	fold loss of binding affinity at CRF1 relative to 2 [2]: ~ 6.8 fold; fold gain in binding affinity at CRF1 relative to 17 [2]: ~ 11 fold
–	Cc1cc(N(C)C)c2c(n1)N(c1ccc(C(C)C)cc1Br)CC(=O)N2CCF [Compound 21]	–	fold gain in binding affinity at CRF1 relative to 17 [2]: ~ 3 fold
~ 8 fold	CCN(CC)c1cc(C)nc2c1N(CCF)C(=O)CN2c1ccc(C(C)C)cc1Br [Compound 22]	–	–
~ 4 fold	Cc1cc(N(C)C)c2c(n1)N(c1ccc(C(C)C)cc1Br)CC(=O)N2C/C=C/CF [Compound 23]	–	–
~ 2.7 fold	Cc1cc(N(C)C)c2c(n1)N(c1ccc(C(C)C)cc1Br)CC(=O)N2CCCCF [Compound 24]	–	–
–	CCCN(CCC)c1cc(C)nc2c(-c3cnc(N(C)C)cc3C)c(C)nn12 [Compound R121919]	–	Ki ([3]; ref 26): 3500 pM; Ki ([3]; ref 27): 3000 ± 160 pM
